{"source": "paper PMC11666850", "about": "“Development and evaluation of deuterated [^18F]JHU94620 isotopologues for the non-invasive assessment of the cannabinoid type 2 receptor in brain” (EJNMMI Radiopharmacy and Chemistry, 2024)", "key": {"hCB2R(D80N) [1]": {"molecular_target": "T1, hCB2R(D80N) (Homo sapiens, UniProt P34972, D80N)", "T1 sequence (P34972 whole entry D80N)": "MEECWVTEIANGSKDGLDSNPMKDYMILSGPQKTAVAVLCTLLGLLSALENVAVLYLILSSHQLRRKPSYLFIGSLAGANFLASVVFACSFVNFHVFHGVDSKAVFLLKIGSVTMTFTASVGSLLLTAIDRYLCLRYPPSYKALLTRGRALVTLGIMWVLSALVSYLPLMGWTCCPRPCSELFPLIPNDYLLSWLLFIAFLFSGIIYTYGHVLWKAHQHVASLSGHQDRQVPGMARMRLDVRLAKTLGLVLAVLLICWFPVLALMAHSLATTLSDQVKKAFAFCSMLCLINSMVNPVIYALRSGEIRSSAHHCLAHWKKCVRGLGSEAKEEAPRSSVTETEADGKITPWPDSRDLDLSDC", "details": "female, Wistar, rat, in vivo", "method": "The dynamic biodistribution of the radiotracer in the lower body of rats was assessed by small animal PET (Nanoscan, Mediso, Hungary) over 60 min with a subsequently T1-weighted MR. Anaesthetized (2% isoflurane, carrier gas mixture of 40% air and 60% O2) male Wistar rats (body weight: 205–308 g, age: 8–10 weeks, no gender-specific differences were taken into account) were kept during imaging on a heated animal bed to sustain body temperature and were pretreated with vehicle (DMSO:Kolliphore EL:0.9% saline, 1:2:7), JHU94620-d8 (1.5 mg kg^−1 bodyweight) or with GW405833 (5 mg kg^−1 bodyweight) 5 min prior tracer application ([^18F]JHU94620-d8: 7.7–28.2 MBq, 0.4 to 3.2 nmol kg^−1 bodyweight), whereby all injections were administered intravenously. For the evaluation of the hCB2R-specific binding of the radiotracer in the brain, female Wistar rats (n = 6, 253–269 g, age: 8 month) were used carrying stereotactically injected constructs of AAV2/7-CaMKII0.4-intron-hCB2R(D80N) in the right striatum and AAV2/7-CaMKII0.4-intron-3flag-eGFP in the control/contralateral striatum (Vandeputte et al. [2011]). 21–26 MBq corresponding to 0.2 to 2.0 nmol kg^−1 bodyweight radiotracer were injected, whereas in displacement studies 5 mg kg^−1 bodyweight GW405833 was administered 20 min after the radiotracer (each n = 3). The PET scans were performed six months after the stereotactic injections of the AAV2/7-constructs.\nThe acquisitions were performed in normal mode and a coincidence mode 1–5. For subsequent dynamic reconstructions list mode data were sorted into sinograms (12 × 10 s, 6 × 30 s, 5 × 60 s and 10 × 300 s). The frames were reconstructed by Ordered Subset Expectation Maximization applied to 3D (OSEM3D) sinograms corrected for decay and attenuation (4 iterations, 6 subsets and a voxel size of 0.4 mm^3) with the Nucline software v2.01 (Mediso, Budapest, Hungary). Analyses of reconstructed studies were performed with PMOD software (v4.205, PMOD Technologies LLC, Fällanden, Switzerland) and results are expressed in standardized uptake values (SUVs) or normalized to a reference region (SUVr).\nFrom the wildtype rats used for in vivo metabolism studies a hematocrit content of 0.56 ± 0.04 (n = 11) was determined by a 5 min centrifugation of 50 µl blood in a hematocrit centrifuge at 500 g. The free plasma fraction (fp) of [^18F]JHU94620-d8 was determined gravimetrically by ultrafiltration of 100 µl rat plasma samples incubated for 5, 15, 30 and 60 min at 37 °C for 20 min at 14,000 g utilizing Nanosep® centrifugal filters (10 kDa, Pall Laboratory, USA). The brain PET images were co-registered to the PMOD integrated Px Rat (W. Schiffer) T2 MR template and the brain stem, cerebellum, left cortex and left midbrain region from the corresponding brain atlas were used for the determination of the regional TACs. Due to high spillover signals from the hCB2R(D80N) expressing region not all provided atlas regions could be evaluated. Subsequently, the total tissue distribution (VT) was estimated by 2-tissue compartment modelling. For correction of the TACs, an averaged image-derived input function (pIDIF, plasma-to-whole blood ratio corrected), determined in biodistribution studies and the parent fraction derived from metabolism studies in Wistar rats (Watabe fit) and pIDIF (3-exponential fit) were integrated into the modelling process. The binding potential was estimated by a simplified reference tissue modelling (SRTM) using the cerebellar region as reference. The parametric maps were generated with the PXMOD module."}, "CB2R [2]": {"molecular_target": "T2, CB2R (Mus musculus, UniProt P47936)", "T2 construct": "from tissue; host or cells: mouse spleen cryosections", "assay": "Quantitative autoradiography, mouse spleen cryosections", "assay_type": "binding", "method": "(§1) For quantitative autoradiography in different species, 10 µm cryosections from mouse, rat and piglet spleen were thawed, dried, and pre-incubated with incubation buffer for 10 min, dried under an airstream. Subsequently, the incubation buffer containing [^18F]JHU94620-d8 (59–137 GBq µmol^−1, 1.7–3.6 nM) was added alone or together with indicated concentrations of the reference compound. Additionally, to assess the non-specific binding of [^18F]JHU94620-d8 to cryosections GW405833 was added instead of the reference compound. After 90 min, cryosections were washed two times for 2 min with ice-cold 50 mM Tris HCl, pH7.4 and 10 s in ddH2O and subsequently dried under an airstream. For the calculation of the radioactivity concentration, 5 µl of five serial 1:2 dilutions of the incubation buffer with [^18F]JHU94620-d8 were air-dried on a microscopic slide. For binding studies in rat spleen cryosections by autoradiography with HLM-derived radiometabolites of [^18F]JHU94620-d8 obtained from the radiometabolite assay, the samples were added to the incubation buffer to a final activity concentration of 0.2 MBq mL^−1 and protocol was followed as described above. Subsequently, the slides were exposed to a phosphor imager plate. After scanning at high sensitivity and a 12.5 µm resolution with a CR35 Bio image plate scanner (Raytest Isotopenmessgeräte GmbH, Straubenhardt, Germany). The analyses of the autoradiographic images were performed with the AIDA 5.1 software (Elysia-Raytest, Angleur, Belgium) resulting in a resolution of 12.617 pixel × 12.616 pixel per µm^2 (1 voxel = 1592 µm^3 ≙ 1.59 10^–3 µg wet tissue) and inhibition curves were created with GraphPad Prism 9.5.1 (GraphPad Inc., La Jolla, CA). […]"}, "hCB2R(D80N) [3]": {"molecular_target": "T1, hCB2R(D80N)", "assay": "Homologous displacement autoradiography, brain cryosections of rats with hCB2R(D80N) overexpression", "assay_type": "binding"}, "CB2R [4]": {"tested_on": "CB2R", "assay": "Quantitative autoradiography, pig spleen cryosections", "assay_type": "binding", "details": "blocking with 10 µM GW405833 or self-blocking", "method": "as §1, with “Germany).” for “Germany). The analyses of the autoradiographic images were performed with the AIDA 5.1 software (Elysia-Raytest, Angleur, Belgium) resulting in a resolution of 12.617 pixel × 12.616 pixel per µm^2 (1 voxel = 1592 µm^3 ≙ 1.59 10^–3 µg wet tissue) and inhibition curves were created with GraphPad Prism 9.5.1 (GraphPad Inc., La Jolla, CA).”"}}}
{"smiles": "[2H]C([2H])([18F])C([2H])([2H])C([2H])([2H])C([2H])([2H])n1c(C)c(C)s/c1=N\\C(=O)C1C(C)(C)C1(C)C", "note": "[[^18F]JHU94620-d8]", "values": [{"measurement": "TAC peak value, Cerebellum", "setting": "hCB2R(D80N) [1]", "result": "2.8 ± 0.2", "unit": "SUVmean"}, {"measurement": "TAC peak value, Contralateral", "setting": "hCB2R(D80N) [1]", "result": "3.3 ± 0.5", "unit": "SUVmean"}, {"measurement": "Time-to-peak, Cerebellum", "setting": "hCB2R(D80N) [1]", "result": 2.5, "unit": "min"}, {"measurement": "Time-to-peak, Contralateral", "setting": "hCB2R(D80N) [1]", "result": 3.5, "unit": "min"}, {"measurement": "Time-to-peak, hCB2R(D80N)", "setting": "hCB2R(D80N) [1]", "result": 10, "unit": "min"}, {"measurement": "VT of hCB2R(D80N) region, times higher than other investigated brain regions", "setting": "hCB2R(D80N) [1]", "result": "up to 23 times"}, {"measurement": "SUVr60min hCB2R(D80N)-to-Cerebellum", "setting": "hCB2R(D80N) [1]; 60 min", "result": "47 ± 4"}, {"measurement": "SUVr60min hCB2R(D80N)-to-Contralateral", "setting": "hCB2R(D80N) [1]; 60 min", "result": "10 ± 4"}, {"measurement": "Kd", "setting": "CB2R [2]", "result": 1.98, "unit": "nM"}, {"measurement": "specific binding to CB2R", "setting": "CB2R [2]; mouse spleen cryosections, blocking with 10 µM GW405833 or self-blocking", "result": "40 ± 18", "unit": "%"}, {"measurement": "Bmax", "setting": "CB2R [2]; spleen of mice", "result": 0.08, "unit": "pmol mg^−1 protein"}, {"measurement": "Kd", "setting": "hCB2R(D80N) [3]", "result": 41, "unit": "nM"}, {"measurement": "specific binding to CB2R", "setting": "CB2R [4]", "result": "22 ± 11", "unit": "%"}]}
